Results from ChEMBL document CHEMBL1909046, “DrugMatrix in vitro pharmacology data”.

How the values were obtained:
B2 bradykinin receptor = molecular target: T1, B2 bradykinin receptor (Homo sapiens, UniProt P30411); type: cell membranes, Membrane; details: chem-1; further: in other assays of this panel Not Active means under 50% inhibition at 10 µM
T1 sequence (P30411 whole entry): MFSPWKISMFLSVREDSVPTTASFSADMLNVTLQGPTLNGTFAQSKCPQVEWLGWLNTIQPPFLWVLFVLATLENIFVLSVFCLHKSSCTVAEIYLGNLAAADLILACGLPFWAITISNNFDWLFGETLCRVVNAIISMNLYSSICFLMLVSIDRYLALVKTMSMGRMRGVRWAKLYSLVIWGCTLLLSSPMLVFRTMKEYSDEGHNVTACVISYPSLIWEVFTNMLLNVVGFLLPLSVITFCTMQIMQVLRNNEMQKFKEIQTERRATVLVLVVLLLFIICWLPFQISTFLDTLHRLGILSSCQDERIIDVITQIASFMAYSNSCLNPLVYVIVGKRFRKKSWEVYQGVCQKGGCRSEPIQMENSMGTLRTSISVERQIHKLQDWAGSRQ

Calcitonin receptor = molecular target: T2, Calcitonin receptor (Homo sapiens, UniProt P30988); type: cell membranes, Membrane; details: t47d; further: in other assays of this panel Not Active means under 50% inhibition at 10 µM
T2 sequence (P30988 whole entry): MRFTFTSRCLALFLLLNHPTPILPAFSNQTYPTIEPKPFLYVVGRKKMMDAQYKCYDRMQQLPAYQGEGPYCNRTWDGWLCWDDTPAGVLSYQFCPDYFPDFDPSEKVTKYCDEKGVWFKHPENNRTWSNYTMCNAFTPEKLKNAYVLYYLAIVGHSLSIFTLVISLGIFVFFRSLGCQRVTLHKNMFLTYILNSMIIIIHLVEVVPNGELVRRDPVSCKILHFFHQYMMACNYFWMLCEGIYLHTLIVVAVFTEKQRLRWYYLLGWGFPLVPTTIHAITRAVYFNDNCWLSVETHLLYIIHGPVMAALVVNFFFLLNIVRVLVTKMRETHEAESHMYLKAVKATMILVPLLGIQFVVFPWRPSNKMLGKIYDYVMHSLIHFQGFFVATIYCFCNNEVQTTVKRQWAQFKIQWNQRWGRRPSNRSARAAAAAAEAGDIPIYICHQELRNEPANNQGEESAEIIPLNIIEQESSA

[1] = molecular target: 5-hydroxytryptamine receptor 2B (Homo sapiens, UniProt P41595); type: cell membranes, CHO-K1, Membrane; further: in other assays of this panel Not Active means under 50% inhibition at 10 µM
Chain of 5-hydroxytryptamine receptor 2B (P41595 whole entry): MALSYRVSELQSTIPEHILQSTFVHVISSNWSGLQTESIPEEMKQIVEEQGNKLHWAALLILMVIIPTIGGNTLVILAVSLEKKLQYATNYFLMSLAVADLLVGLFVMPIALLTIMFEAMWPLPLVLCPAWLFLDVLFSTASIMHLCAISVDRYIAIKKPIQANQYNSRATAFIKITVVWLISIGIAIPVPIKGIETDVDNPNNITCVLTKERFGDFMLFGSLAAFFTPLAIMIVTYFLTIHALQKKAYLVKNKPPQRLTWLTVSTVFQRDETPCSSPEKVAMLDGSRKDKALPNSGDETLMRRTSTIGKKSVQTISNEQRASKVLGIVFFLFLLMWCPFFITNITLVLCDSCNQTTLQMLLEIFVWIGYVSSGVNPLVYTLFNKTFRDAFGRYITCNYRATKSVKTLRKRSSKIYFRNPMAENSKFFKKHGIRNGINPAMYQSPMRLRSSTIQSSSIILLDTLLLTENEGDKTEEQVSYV

[2] = DRUGMATRIX: Sigma2 radioligand binding (ligand: [3H] Ifenprodil); type: cell membranes, Rattus norvegicus, Wistar, Brain, Membrane; details: Not Active = under 50% inhibition at 10 µM
[3] = DRUGMATRIX: Calcium Channel Type L, Phenylalkylamine radioligand binding (ligand: [3H] (-)-Desmethoxyverapamil (D-888)); type: cell membranes, Rattus norvegicus, Wistar, Brain, Membrane; details: Not Active = under 50% inhibition at 10 µM
Carbonic anhydrase 2 = Carbonic anhydrase 2 (Homo sapiens, UniProt P00918); experiment: DRUGMATRIX: Carbonic Anhydrase II enzyme inhibition (substrate: 4-Nitrophenyl acetate (4-NPA)); type: tissue-based, Erythrocyte; details: erythrocyte; Not Active = under 50% inhibition at 10 µM
[4] = molecular target: Prostaglandin G/H synthase 1 (Homo sapiens, UniProt P23219); experiment: biochemical; type: tissue-based, Platelet;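 further: inhibition of COX-1 enzyme activity, with arachidonic acid supplied as substrate; in other assays of this panel Not Active means under 50% inhibition at 10 µM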
Chain of Prostaglandin G/H synthase 1 (P23219 whole entry): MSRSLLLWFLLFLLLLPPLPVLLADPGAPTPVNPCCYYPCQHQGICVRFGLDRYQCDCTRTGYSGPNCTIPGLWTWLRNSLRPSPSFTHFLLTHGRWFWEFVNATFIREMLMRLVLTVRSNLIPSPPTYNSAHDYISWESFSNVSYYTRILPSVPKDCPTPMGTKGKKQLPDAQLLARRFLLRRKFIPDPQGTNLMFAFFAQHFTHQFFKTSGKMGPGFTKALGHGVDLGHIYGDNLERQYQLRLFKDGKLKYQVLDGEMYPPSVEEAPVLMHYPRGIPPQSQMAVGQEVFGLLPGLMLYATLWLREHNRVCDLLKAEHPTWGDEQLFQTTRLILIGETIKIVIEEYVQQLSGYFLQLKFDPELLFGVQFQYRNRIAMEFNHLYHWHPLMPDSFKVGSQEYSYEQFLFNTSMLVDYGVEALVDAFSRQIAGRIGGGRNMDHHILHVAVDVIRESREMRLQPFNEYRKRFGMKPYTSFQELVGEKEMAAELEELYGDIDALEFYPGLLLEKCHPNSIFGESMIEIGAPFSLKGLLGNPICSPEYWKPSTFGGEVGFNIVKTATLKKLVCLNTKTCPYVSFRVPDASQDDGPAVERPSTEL

[5] = DRUGMATRIX: Phosphodiesterase PDE4 enzyme inhibition (substrate: [3H]cAMP + cAMP); details: u-937; Not Active = under 50% inhibition at 10 µM
[6] = DRUGMATRIX: Potassium Channel [KATP] radioligand binding (ligand: [3H] Glyburide); type: cell membranes, Membrane; details: hit-t15; Not Active = under 50% inhibition at 10 µM
Interstitial collagenase = molecular target: T3, Interstitial collagenase (Homo sapiens, UniProt P03956); type: tissue-based, Rheumatoid synovial fibroblasts
T3 sequence (P03956 whole entry): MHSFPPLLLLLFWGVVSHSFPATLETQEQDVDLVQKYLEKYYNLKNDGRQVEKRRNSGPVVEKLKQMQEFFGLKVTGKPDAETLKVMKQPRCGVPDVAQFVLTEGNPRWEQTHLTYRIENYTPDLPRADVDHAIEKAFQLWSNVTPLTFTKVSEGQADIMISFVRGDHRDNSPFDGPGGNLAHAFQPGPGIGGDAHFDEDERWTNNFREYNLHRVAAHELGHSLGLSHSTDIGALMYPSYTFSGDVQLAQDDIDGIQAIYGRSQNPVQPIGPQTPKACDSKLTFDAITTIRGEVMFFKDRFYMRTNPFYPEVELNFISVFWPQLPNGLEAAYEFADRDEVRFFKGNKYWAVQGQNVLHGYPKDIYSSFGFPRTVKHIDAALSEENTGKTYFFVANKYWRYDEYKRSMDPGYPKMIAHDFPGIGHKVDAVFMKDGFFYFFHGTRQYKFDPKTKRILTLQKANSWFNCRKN

Adenosine receptor A3 = molecular target: T4, Adenosine receptor A3 (Homo sapiens, UniProt P0DMS8); type: cell membranes, CHO-K1, Membrane; details: cho-k1
T4 sequence (P0DMS8 whole entry): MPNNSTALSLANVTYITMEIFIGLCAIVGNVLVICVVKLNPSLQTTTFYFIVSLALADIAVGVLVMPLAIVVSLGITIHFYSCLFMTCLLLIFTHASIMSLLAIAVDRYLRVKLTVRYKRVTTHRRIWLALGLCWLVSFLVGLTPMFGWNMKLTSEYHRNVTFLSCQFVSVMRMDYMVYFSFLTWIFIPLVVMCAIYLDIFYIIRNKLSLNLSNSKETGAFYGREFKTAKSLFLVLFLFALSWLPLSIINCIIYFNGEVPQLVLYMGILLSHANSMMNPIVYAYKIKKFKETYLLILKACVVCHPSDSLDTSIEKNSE

Estrogen receptor = molecular target: T5, Estrogen receptor (Homo sapiens, UniProt P03372); details: sf9; further: in other assays of this panel Not Active means under 50% inhibition at 10 µM
T5 sequence (P03372 whole entry): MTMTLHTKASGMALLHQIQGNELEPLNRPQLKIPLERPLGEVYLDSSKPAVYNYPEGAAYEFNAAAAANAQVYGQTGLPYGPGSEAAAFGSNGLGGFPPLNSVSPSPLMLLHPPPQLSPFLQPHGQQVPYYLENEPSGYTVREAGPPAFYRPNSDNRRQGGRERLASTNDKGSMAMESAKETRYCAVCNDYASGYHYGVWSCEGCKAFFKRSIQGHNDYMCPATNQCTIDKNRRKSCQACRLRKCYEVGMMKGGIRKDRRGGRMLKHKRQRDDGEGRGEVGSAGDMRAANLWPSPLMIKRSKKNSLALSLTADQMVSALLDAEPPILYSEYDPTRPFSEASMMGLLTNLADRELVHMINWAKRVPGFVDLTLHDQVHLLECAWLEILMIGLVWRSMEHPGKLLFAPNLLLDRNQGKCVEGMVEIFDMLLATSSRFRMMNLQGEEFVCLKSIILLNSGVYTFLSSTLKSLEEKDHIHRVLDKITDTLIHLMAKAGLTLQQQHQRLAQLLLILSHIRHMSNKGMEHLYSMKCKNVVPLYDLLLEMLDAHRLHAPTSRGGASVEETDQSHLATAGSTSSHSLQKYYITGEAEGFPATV

Compound: CN(C)CCCC1(c2ccc(F)cc2)OCc2cc(C#N)ccc21 (stereo not given) [CITALOPRAM]
- IC50 (B2 bradykinin receptor): Not Active
- IC50 (Calcitonin receptor): Not Active
- IC50 ([1]; read-out: IC50): 1840 nM
- Ki ([1]; read-out: Ki): 1170 nM
- IC50 [2]: Not Active
- Ki [2]: Not Active
- IC50 ([3]; read-out: IC50): 1020 nM
- Ki ([3]; read-out: Ki): 996 nM
- IC50 (Carbonic anhydrase 2): Not Active
- IC50 ([4]; platelet): Not Active
- IC50 [5]: Not Active
- Ki [5]: Not Active
- IC50 [6]: Not Active
- Ki [6]: Not Active
- IC50 (Interstitial collagenase): Not Active
- IC50 (Adenosine receptor A3): Not Active
- IC50 (Estrogen receptor): Not Active

Compound: OXALIPLATIN
- IC50 (B2 bradykinin receptor): Not Active
- Ki (B2 bradykinin receptor): Not Active
- IC50 (Calcitonin receptor): Not Active
- Ki (Calcitonin receptor): Not Active
- IC50 ([1]; cho-k1): Not Active
- Ki ([1]; cho-k1): Not Active
- IC50 [2]: Not Active
- Ki [2]: Not Active
- IC50 [3]: Not Active
- Ki [3]: Not Active
- IC50 (Carbonic anhydrase 2): Not Active
- Ki (Carbonic anhydrase 2): Not Active
- IC50 ([4]; platelet): Not Active
- Ki ([4]; platelet): Not Active
- IC50 [5]: Not Active
- Ki [5]: Not Active
- IC50 [6]: Not Active
- Ki [6]: Not Active
- IC50 (Interstitial collagenase): Not Active
- Ki (Interstitial collagenase): Not Active
- IC50 (Adenosine receptor A3): Not Active
- Ki (Adenosine receptor A3): Not Active
- IC50 (Estrogen receptor): Not Active
- Ki (Estrogen receptor): Not Active

Compound: CCCc1cc(=O)[nH]c(=S)[nH]1 [PROPYLTHIOURACIL]
- IC50 (B2 bradykinin receptor): Not Active
- IC50 (Calcitonin receptor): Not Active
- IC50 ([1]; cho-k1): Not Active
- IC50 [2]: Not Active
- Ki [2]: Not Active
- IC50 [3]: Not Active
- Ki [3]: Not Active
- IC50 (Carbonic anhydrase 2): Not Active
- IC50 ([4]; platelet): Not Active
- IC50 [5]: Not Active
- Ki [5]: Not Active
- IC50 [6]: Not Active
- Ki [6]: Not Active
- IC50 (Interstitial collagenase): Not Active
- IC50 (Adenosine receptor A3): Not Active
- IC50 (Estrogen receptor): Not Active

Compound: CARBOPLATIN
- IC50 (B2 bradykinin receptor): Not Active
- Ki (B2 bradykinin receptor): Not Active
- IC50 (Calcitonin receptor): Not Active
- Ki (Calcitonin receptor): Not Active
- IC50 ([1]; cho-k1): Not Active
- Ki ([1]; cho-k1): Not Active
- IC50 [2]: Not Active
- Ki [2]: Not Active
- IC50 [3]: Not Active
- Ki [3]: Not Active
- IC50 (Carbonic anhydrase 2): Not Active
- Ki (Carbonic anhydrase 2): Not Active
- IC50 ([4]; platelet): Not Active
- Ki ([4]; platelet): Not Active
- IC50 [5]: Not Active
- Ki [5]: Not Active
- IC50 [6]: Not Active
- Ki [6]: Not Active
- IC50 (Interstitial collagenase): Not Active
- Ki (Interstitial collagenase): Not Active
- IC50 (Adenosine receptor A3): Not Active
- Ki (Adenosine receptor A3): Not Active
- IC50 (Estrogen receptor): Not Active
- Ki (Estrogen receptor): Not Active

Compound: Nc1nc2c(ncn2COC(CO)CO)c(=O)[nH]1 [GANCICLOVIR]
- IC50 (B2 bradykinin receptor): Not Active
- IC50 (Calcitonin receptor): Not Active
- IC50 ([1]; cho-k1): Not Active
- IC50 [2]: Not Active
- Ki [2]: Not Active
- IC50 [3]: Not Active
- Ki [3]: Not Active
- IC50 (Carbonic anhydrase 2): Not Active
- IC50 ([4]; platelet): Not Active
- IC50 [5]: Not Active
- Ki [5]: Not Active
- IC50 [6]: Not Active
- Ki [6]: Not Active
- IC50 (Interstitial collagenase): Not Active
- IC50 (Adenosine receptor A3): Not Active
- IC50 (Estrogen receptor): Not Active

Compound: CC1(C)S[C@@H]2[C@H](NC(=O)[C@H](NC(=O)N3CCNC3=O)c3ccccc3)C(=O)N2[C@H]1C(=O)O [AZLOCILLIN]
- IC50 (B2 bradykinin receptor): Not Active
- IC50 (Calcitonin receptor): Not Active
- IC50 ([1]; cho-k1): Not Active
- IC50 [2]: Not Active
- Ki [2]: Not Active
- IC50 [3]: Not Active
- Ki [3]: Not Active
- IC50 (Carbonic anhydrase 2): Not Active
- IC50 ([4]; platelet): Not Active
- IC50 [5]: Not Active
- Ki [5]: Not Active
- IC50 [6]: Not Active
- Ki [6]: Not Active
- IC50 (Interstitial collagenase): Not Active
- IC50 (Adenosine receptor A3): Not Active
- IC50 (Estrogen receptor): Not Active

Compound: COc1ccc2cc(CC(=O)O)ccc2c1
- IC50 (B2 bradykinin receptor): Not Active
- IC50 (Calcitonin receptor): Not Active
- IC50 ([1]; cho-k1): Not Active
- IC50 [2]: Not Active
- Ki [2]: Not Active
- IC50 [3]: Not Active
- Ki [3]: Not Active
- IC50 (Carbonic anhydrase 2): Not Active
- IC50 ([4]; read-out: IC50): 4110 nM
- IC50 [5]: Not Active
- Ki [5]: Not Active
- IC50 [6]: Not Active
- Ki [6]: Not Active
- IC50 (Interstitial collagenase): Not Active
- IC50 (Adenosine receptor A3): Not Active
- IC50 (Estrogen receptor): Not Active

Compound: CCOC(=O)OC(C)OC1=C(C(=O)Nc2ccccn2)N(C)S(=O)(=O)c2ccccc21 (stereo not given) [AMPIROXICAM]
- IC50 (B2 bradykinin receptor): Not Active
- IC50 (Calcitonin receptor): Not Active
- IC50 ([1]; cho-k1): Not Active
- IC50 [2]: Not Active
- Ki [2]: Not Active
- IC50 [3]: Not Active
- Ki [3]: Not Active
- IC50 (Carbonic anhydrase 2): Not Active
- IC50 ([4]; platelet): Not Active
- IC50 [5]: Not Active
- Ki [5]: Not Active
- IC50 [6]: Not Active
- Ki [6]: Not Active
- IC50 (Interstitial collagenase): Not Active
- IC50 (Adenosine receptor A3): Not Active
- IC50 (Estrogen receptor): Not Active
